Measurements taken from ChEMBL document CHEMBL2203238, “Hit to Lead optimization of a novel class of squarate-containing polo-like kinases inhibitors” (Bioorg Med Chem Lett, 2012).

What was measured:
[1] = molecular target: Serine/threonine-protein kinase PLK3 (Homo sapiens, UniProt Q9H4B4); assay: Inhibition of recombinant PLK3 after 1 hr by scintillation counter analysis in presence of gamma-[33P]ATP
[2] = molecular target: Insulin-like growth factor 1 receptor (Homo sapiens, UniProt P08069); assay: Inhibition of recombinant IGF1R after 1 hr by scintillation counter analysis in presence of gamma-[33P]ATP
[3] = molecular target: Mitogen-activated protein kinase 8 (Homo sapiens, UniProt P45983); assay: Inhibition of recombinant JNK1A1 after 1 hr by scintillation counter analysis in presence of gamma-[33P]ATP
Ephrin type-A receptor 2 = Ephrin type-A receptor 2 (Homo sapiens, UniProt P29317); assay: Inhibition of recombinant EPHA2 after 1 hr by scintillation counter analysis in presence of gamma-[33P]ATP
[4] = molecular target: Serine/threonine-protein kinase Chk2 (Homo sapiens, UniProt O96017); assay: Inhibition of recombinant CHK2 after 1 hr by scintillation counter analysis in presence of gamma-[33P]ATP
[5] = Inhibition of recombinant PKA after 1 hr by scintillation counter analysis in presence of gamma-[33P]ATP
[6] = molecular target: Hepatocyte growth factor receptor (Homo sapiens, UniProt P08581); assay: Inhibition of recombinant c-MET after 1 hr by scintillation counter analysis in presence of gamma-[33P]ATP
[7] = molecular target: 3-phosphoinositide-dependent protein kinase 1 (Homo sapiens, UniProt O15530); assay: Inhibition of recombinant PDK1 after 1 hr by scintillation counter analysis in presence of gamma-[33P]ATP
[8] = Volume of distribution in mouse; type: ADME, organism-based; conditions: in vivo
[9] = molecular target: MAP/microtubule affinity-regulating kinase 3 (Homo sapiens, UniProt P27448); assay: Inhibition of recombinant CTAK1 after 1 hr by scintillation counter analysis in presence of gamma-[33P]ATP
[10] = molecular target: Glycogen synthase kinase-3 alpha (Homo sapiens, UniProt P49840); assay: Inhibition of recombinant GSK3A after 1 hr by scintillation counter analysis in presence of gamma-[33P]ATP
[11] = molecular target: Mitogen-activated protein kinase 1 (Homo sapiens, UniProt P28482); assay: Inhibition of recombinant ERK2 after 1 hr by scintillation counter analysis in presence of gamma-[33P]ATP
[12] = molecular target: Receptor tyrosine-protein kinase erbB-2 (Homo sapiens, UniProt P04626); assay: Inhibition of recombinant ERBB2 after 1 hr by scintillation counter analysis in presence of gamma-[33P]ATP
[13] = molecular target: Glycogen synthase kinase-3 beta (Homo sapiens, UniProt P49841); assay: Inhibition of recombinant GSK3B after 1 hr by scintillation counter analysis in presence of gamma-[33P]ATP
[14] = Cmax in mouse at 50 mg/kg, po measured at 8 hrs; type: ADME, organism-based; parameters: dose 50 mg/kg, route oral; conditions: in vivo
[15] = molecular target: Dual specificity tyrosine-phosphorylation-regulated kinase 1A (Homo sapiens, UniProt Q13627); assay: Inhibition of recombinant DYRK1A after 1 hr by scintillation counter analysis in presence of gamma-[33P]ATP
[16] = molecular target: Serine/threonine-protein kinase Sgk1 (Homo sapiens, UniProt O00141); assay: Inhibition of recombinant SGK after 1 hr by scintillation counter analysis in presence of gamma-[33P]ATP
[17] = molecular target: Tyrosine-protein kinase ITK/TSK (Homo sapiens, UniProt Q08881); assay: Inhibition of recombinant ITK after 1 hr by scintillation counter analysis in presence of gamma-[33P]ATP
[18] = molecular target: 5'-AMP-activated protein kinase subunit beta-1 (Homo sapiens, UniProt Q9Y478); assay: Inhibition of recombinant AMPK after 1 hr by scintillation counter analysis in presence of gamma-[33P]ATP
[19] = molecular target: Mitogen-activated protein kinase 9 (Homo sapiens, UniProt P45984); assay: Inhibition of recombinant JNK2A2 after 1 hr by scintillation counter analysis in presence of gamma-[33P]ATP
[20] = molecular target: Vascular endothelial growth factor receptor 2 (Homo sapiens, UniProt P35968); assay: Inhibition of recombinant KDR after 1 hr by scintillation counter analysis in presence of gamma-[33P]ATP
[21] = molecular target: Tyrosine-protein kinase JAK3 (Homo sapiens, UniProt P52333); assay: Inhibition of recombinant JAK3 after 1 hr by scintillation counter analysis in presence of gamma-[33P]ATP
[22] = molecular target: Serine/threonine-protein kinase PAK 1 (Homo sapiens, UniProt Q13153); assay: Inhibition of recombinant PAK1 after 1 hr by scintillation counter analysis in presence of gamma-[33P]ATP
[23] = molecular target: MAP kinase-activated protein kinase 3 (Homo sapiens, UniProt Q16644); assay: Inhibition of recombinant MK3 after 1 hr by scintillation counter analysis in presence of gamma-[33P]ATP
[24] = molecular target: Serine/threonine-protein kinase PLK4 (Homo sapiens, UniProt O00444); assay: Inhibition of recombinant PLK4 after 1 hr by scintillation counter analysis in presence of gamma-[33P]ATP
[25] = molecular target: Serine/threonine-protein kinase pim-1 (Homo sapiens, UniProt P11309); assay: Inhibition of recombinant PIM1 after 1 hr by scintillation counter analysis in presence of gamma-[33P]ATP
LIM domain kinase 1 = LIM domain kinase 1 (Homo sapiens, UniProt P53667); assay: Inhibition of recombinant LIMK1 after 1 hr by scintillation counter analysis in presence of gamma-[33P]ATP
[26] = molecular target: Rho-associated protein kinase 2 (Homo sapiens, UniProt O75116); assay: Inhibition of recombinant ROCK2 after 1 hr by scintillation counter analysis in presence of gamma-[33P]ATP
[27] = molecular target: Tyrosine-protein kinase Blk (Homo sapiens, UniProt P51451); assay: Inhibition of recombinant BLK after 1 hr by scintillation counter analysis in presence of gamma-[33P]ATP

Chain of Glycogen synthase kinase-3 alpha (P49840 whole entry): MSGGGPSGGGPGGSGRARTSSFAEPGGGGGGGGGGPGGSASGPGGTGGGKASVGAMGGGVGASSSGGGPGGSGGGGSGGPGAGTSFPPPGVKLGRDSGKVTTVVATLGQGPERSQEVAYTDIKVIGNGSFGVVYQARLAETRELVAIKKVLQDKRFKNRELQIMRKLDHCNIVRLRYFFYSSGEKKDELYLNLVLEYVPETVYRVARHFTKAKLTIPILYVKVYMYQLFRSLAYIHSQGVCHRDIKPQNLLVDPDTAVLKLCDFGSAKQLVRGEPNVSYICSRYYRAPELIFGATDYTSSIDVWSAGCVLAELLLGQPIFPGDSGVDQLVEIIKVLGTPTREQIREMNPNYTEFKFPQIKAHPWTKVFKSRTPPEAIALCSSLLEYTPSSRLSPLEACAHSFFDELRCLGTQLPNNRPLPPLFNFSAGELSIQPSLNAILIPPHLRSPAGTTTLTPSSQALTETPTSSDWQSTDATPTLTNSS
Chain of Glycogen synthase kinase-3 beta (P49841 whole entry): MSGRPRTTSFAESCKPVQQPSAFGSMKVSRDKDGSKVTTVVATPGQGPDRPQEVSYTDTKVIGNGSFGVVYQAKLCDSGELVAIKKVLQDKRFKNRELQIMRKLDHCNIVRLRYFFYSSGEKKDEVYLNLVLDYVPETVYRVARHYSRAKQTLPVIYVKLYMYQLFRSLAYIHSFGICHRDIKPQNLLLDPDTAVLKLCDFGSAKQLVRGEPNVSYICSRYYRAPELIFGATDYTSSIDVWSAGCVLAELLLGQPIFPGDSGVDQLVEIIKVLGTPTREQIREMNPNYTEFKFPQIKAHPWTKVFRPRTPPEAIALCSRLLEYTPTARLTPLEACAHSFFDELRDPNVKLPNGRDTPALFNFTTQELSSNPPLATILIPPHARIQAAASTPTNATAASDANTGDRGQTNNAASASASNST
Chain of Mitogen-activated protein kinase 1 (P28482 whole entry): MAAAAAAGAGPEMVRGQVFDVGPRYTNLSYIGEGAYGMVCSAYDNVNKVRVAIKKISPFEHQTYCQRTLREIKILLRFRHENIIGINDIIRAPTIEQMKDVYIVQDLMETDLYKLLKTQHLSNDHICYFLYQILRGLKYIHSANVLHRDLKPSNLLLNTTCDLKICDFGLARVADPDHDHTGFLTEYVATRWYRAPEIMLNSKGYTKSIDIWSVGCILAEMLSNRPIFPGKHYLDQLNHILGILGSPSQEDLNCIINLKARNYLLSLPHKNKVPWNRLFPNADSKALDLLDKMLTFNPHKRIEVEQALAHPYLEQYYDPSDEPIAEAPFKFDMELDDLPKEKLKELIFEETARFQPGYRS
Chain of Serine/threonine-protein kinase Chk2 (O96017 whole entry): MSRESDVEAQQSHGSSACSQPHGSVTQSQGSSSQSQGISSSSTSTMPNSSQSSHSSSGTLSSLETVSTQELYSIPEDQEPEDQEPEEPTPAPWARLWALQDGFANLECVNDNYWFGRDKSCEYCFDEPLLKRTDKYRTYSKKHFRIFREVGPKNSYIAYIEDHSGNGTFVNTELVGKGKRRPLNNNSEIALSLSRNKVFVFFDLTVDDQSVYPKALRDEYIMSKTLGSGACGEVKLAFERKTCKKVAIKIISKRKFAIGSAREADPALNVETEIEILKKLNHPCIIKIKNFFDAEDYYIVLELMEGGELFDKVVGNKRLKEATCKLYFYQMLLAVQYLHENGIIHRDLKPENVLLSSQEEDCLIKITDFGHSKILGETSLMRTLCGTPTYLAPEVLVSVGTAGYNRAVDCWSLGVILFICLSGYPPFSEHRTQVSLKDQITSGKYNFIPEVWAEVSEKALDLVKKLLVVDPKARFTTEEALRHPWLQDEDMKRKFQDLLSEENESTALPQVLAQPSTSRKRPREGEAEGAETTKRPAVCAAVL
Chain of Rho-associated protein kinase 2 (O75116 whole entry): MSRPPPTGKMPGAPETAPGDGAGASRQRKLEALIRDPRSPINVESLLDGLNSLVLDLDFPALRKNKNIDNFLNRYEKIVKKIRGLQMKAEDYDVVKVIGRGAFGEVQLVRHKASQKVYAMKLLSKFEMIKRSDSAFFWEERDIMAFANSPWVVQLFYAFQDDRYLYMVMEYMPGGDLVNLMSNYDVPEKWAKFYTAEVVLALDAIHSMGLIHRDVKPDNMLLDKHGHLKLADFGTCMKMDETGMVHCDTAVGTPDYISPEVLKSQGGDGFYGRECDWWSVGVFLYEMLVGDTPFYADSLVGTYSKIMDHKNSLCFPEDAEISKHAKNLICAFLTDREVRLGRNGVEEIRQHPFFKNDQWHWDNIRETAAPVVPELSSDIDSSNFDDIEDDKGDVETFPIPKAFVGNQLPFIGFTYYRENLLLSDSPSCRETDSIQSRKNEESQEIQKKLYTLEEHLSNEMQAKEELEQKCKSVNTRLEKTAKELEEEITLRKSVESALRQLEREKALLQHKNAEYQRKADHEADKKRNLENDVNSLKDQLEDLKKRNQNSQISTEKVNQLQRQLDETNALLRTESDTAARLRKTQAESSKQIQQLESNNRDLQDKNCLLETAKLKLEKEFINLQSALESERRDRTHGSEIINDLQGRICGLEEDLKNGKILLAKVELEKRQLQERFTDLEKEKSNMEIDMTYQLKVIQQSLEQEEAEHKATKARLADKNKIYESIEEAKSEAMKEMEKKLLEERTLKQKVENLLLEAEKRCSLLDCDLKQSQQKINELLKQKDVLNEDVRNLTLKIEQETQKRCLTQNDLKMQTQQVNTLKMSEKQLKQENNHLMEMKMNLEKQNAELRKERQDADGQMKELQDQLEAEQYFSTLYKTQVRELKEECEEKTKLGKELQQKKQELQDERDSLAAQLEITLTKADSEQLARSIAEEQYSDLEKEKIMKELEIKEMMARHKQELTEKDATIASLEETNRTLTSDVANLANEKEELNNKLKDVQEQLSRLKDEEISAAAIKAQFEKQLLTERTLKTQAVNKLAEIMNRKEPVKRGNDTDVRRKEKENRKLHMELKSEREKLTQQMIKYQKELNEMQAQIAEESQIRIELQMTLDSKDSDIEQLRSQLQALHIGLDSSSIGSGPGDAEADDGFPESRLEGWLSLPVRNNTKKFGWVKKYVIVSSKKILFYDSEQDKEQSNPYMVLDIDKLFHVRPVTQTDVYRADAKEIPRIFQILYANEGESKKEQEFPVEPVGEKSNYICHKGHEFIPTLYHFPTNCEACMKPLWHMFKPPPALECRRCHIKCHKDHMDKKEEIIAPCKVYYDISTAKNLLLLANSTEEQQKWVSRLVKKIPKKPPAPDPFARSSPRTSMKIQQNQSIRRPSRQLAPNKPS
Chain of MAP/microtubule affinity-regulating kinase 3 (P27448 whole entry): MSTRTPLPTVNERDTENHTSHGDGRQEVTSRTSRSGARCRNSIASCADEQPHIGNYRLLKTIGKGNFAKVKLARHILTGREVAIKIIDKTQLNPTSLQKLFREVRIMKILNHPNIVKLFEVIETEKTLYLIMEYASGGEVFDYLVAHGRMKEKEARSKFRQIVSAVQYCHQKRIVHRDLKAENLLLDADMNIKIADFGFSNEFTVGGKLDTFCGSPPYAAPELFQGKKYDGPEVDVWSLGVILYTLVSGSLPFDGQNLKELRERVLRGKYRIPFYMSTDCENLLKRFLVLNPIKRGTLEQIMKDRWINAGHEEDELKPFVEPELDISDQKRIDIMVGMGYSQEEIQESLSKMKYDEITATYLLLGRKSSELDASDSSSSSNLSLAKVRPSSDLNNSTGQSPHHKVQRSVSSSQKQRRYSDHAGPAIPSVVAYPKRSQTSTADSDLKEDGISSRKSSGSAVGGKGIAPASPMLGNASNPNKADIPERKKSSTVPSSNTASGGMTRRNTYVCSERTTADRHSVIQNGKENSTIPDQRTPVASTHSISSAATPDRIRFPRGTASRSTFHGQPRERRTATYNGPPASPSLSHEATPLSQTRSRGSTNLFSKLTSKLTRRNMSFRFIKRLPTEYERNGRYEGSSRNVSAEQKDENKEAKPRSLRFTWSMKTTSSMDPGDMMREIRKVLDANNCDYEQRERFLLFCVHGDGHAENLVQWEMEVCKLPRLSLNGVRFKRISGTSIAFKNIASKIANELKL
Chain of Tyrosine-protein kinase JAK3 (P52333 whole entry): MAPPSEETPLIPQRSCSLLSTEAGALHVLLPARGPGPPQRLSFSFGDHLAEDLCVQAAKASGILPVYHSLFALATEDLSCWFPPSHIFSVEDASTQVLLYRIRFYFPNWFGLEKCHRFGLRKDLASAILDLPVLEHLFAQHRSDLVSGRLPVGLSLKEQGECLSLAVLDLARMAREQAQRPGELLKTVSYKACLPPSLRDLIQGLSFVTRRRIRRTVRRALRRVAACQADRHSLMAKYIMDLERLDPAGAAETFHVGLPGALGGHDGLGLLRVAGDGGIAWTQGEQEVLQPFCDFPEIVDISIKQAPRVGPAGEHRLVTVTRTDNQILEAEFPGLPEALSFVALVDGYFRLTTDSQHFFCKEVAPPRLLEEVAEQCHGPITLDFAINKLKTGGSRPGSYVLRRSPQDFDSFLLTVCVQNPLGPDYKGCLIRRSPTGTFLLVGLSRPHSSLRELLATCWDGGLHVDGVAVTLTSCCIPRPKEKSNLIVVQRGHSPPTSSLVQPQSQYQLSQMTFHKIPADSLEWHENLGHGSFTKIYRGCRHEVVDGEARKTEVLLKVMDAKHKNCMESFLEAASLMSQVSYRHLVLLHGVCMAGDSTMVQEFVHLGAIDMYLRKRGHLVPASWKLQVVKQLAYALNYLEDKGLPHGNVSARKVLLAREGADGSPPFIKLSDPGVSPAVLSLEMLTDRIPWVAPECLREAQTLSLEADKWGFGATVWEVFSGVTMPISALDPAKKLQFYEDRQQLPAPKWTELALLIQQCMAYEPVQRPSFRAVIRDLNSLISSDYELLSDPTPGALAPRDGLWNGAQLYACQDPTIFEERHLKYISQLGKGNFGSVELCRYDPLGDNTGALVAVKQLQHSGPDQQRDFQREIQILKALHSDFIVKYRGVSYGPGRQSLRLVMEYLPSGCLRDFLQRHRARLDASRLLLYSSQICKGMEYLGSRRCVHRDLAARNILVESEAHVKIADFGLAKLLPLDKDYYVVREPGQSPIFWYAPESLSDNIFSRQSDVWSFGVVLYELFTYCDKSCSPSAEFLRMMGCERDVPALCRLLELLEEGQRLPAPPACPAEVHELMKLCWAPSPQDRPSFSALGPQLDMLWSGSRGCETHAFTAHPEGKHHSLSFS

`CC(C)(C)Nc1c(Nc2ccnc(Nc3ccc(-c4ccncc4)cc3)n2)c(=O)c1=O` showed a Ki [1] of 2 nM, a Ki [2] greater than 1800 nM and a Ki [3] greater than 3000 nM. The Ki (Ephrin type-A receptor 2) was greater than 2800 nM, the Ki [4] was 88 nM and the Ki [5] was greater than 7500 nM. The Ki [6] was 1600 nM, the Ki [7] was 71 nM and the Vd [8] was 3.7 L/kg. For the same compound, the Ki [9] was 4830 nM, the Ki [10] was 21 nM and the Ki [11] was 7200 nM. For the same compound, the Ki [12] was greater than 1400 nM, the Ki [13] was 102 nM and the Cmax [14] was 3.3 µM. The Ki [15] was greater than 6800 nM, the Ki [16] was 260 nM and the Ki [17] was greater than 1500 nM. The Ki [18] was 333 nM, the Ki [19] was 262 nM and the Ki [20] was 98 nM. For the same compound, the Ki [21] was greater than 1700 nM, the Ki [22] was greater than 9700 nM and the Ki [23] was greater than 9200 nM. For the same compound, the Ki [24] was 7 nM, the Ki [25] was 1600 nM and the Ki (LIM domain kinase 1) was 194 nM. The Ki [26] was 430 nM and the Ki [27] was greater than 1400 nM.
